Test results published in patent publication US12428406B2 (PMV Pharmaceuticals, Inc., priority 2019, dated 2025).

Target: T1, p53 Y220C (Homo sapiens, UniProt P04637, Y220C)
T1 construct: The recombinant protein was a truncation mutant containing only amino acids 94-312 of p53; made in house; host or cells: E. coli
Assay: In vitro DNA binding activity assay (HTRF / TR-FRET): stabilization of p53 Y220C and increase of its DNA binding activity
Format: biochemical
Settings: recombinant His-tagged p53 Y220C DNA binding domain (aa 94-312), biotin-labeled consensus DNA, incubated at 27° C. or 29° C. for 60 min
Method: The ability of a compound of the invention to stabilize p53 Y220C and increase the DNA binding activity of p53 Y220C was measured by a homogeneous time-resolved fluorescence (HTRF) assay. Recombinant His-tagged p53 Y220C used in the HTRF assay was expressed in the bacterium E. coli.
The binding of the recombinant His-tagged p53 Y220C protein and the biotin-labeled consensus DNA was measured using fluorescence resonance energy transfer (FRET). For the FRET assay, the binding between the p53 mutant and the DNA sequence was measured by detecting the fluorescence of the interaction between an anti-His antibody conjugated to allophycocyanin (APC) and streptavidin conjugated to europium to detect the biotin-labeled DNA.
The test compounds were prepared as 4.5 mM stock solutions in dimethyl sulfoxide (DMSO). The compounds of the disclosure were used to test the stabilization of p53 Y220C and increase in DNA binding activity of p53 Y220C. The stock solutions were then serially diluted 3-fold in DMSO, and 1.2 μL of the diluted solutions was added to each well of a 384-well polypropylene black plate.
The test and control samples were spun at 1200 rpm for 1 minute and incubated at room temperature for 15 minutes. […] The plates were spun at 1200 rpm for 1 minute and incubated at room temperature for 20 minutes. The assay signals were monitored by reading excitation at 340 nm, and emission fluorescence at 615 nm and 665 nm on a plate reader.
The percentage of activation of protein DNA binding in the presence of a compound of the invention compared to the absence of the compound was denoted by a SC150 value, which indicated the concentration of the compound required to increase the DNA binding activity by 50%. The SC150 values were calculated using either Prism™ or ActivityBase™.

T1 sequence (P04637 94-312, change not shown): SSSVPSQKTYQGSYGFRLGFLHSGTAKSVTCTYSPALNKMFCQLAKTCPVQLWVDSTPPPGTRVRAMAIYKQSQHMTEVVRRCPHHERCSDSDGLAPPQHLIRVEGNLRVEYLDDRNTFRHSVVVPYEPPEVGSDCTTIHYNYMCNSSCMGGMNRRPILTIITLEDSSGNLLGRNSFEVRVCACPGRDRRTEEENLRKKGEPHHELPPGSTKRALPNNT

Row | SC150 (concentration of the compound required to increase the DNA binding activity by 50%) | SMILES
1 | + (+ = 0 μM ≤ SC150 < 0.05 μM) | COc1cc(C(=O)O)ccc1NCC#Cc1cc2c(N[C@@H]3CCN(C)C[C@H]3F)cccc2n1CC(F)(F)F [Compound 788A, 4-{[3-(4-{[(3R,4R)-3-fluoro-1-methylpiperidin-4-yl]amino}-1-(2,2,2-trifluoroethyl)-1H-indol-2-yl)prop-2-yn-1-yl]amino}-3-methoxybenzoic acid]
2 | + (+ = 0 μM ≤ SC150 < 0.05 μM) | N#CCOc1cc(S(N)(=O)=O)ccc1NCC#Cc1cc2c(N[C@H]3CC[C@@H](N4CC5(CCOCC5)C4)CC3)cccc2n1CC(F)(F)F [Compound 300A, 3-(cyanomethoxy)-4-{[3-(4-{[(1S,4S)-4-{7-oxa-2-azaspiro[3.5]nonan-2-yl}cyclo-hexyl]amino}-1-(2,2,2-trifluoroethyl)-1H-indol-2-yl)prop-2-yn-1-yl]amino}benzene-1-sulfonamide]
3 | + (+ = 0 μM ≤ SC150 < 0.05 μM) | COc1cc(S(C)(=O)=O)ccc1NCC#Cc1cc2c(N[C@H]3CCOC[C@H]3F)cccc2n1CC(F)(F)F [Compound 1025A, N-[(3S,4S)-3-fluorooxan-4-yl]-2-{3-[(4-methanesulfonyl-2-methoxyphenyl)amino]prop-1-yn-1-yl}-1-(2,2,2-trifluoroethyl)-1H-indol-4-amine]
4 | + (+ = 0 μM ≤ SC150 < 0.05 μM) | COc1cc(C(C)(C)C#N)ncc1NCC#Cc1cc2c(NC3CCOCC3)cccc2n1CC(F)(F)F [Compound 995A, 2-{4-methoxy-5-[(3-{4-[(oxan-4-yl)amino]-1-(2,2,2-trifluoroethyl)-1H-indol-2-yl}prop-2-yn-1-yl)amino]pyridin-2-yl}-2-methylpropanenitrile]
5 | ++ (++ = 0.05 μM ≤ SC150 < 0.1 μM) | CC(=O)Nc1cc(S(C)(=O)=O)ccc1OCC#Cc1cc2c(N[C@H]3CC[C@H](N(C)C)CC3)cccc2n1CC(F)(F)F [Compound 115A, N-(5-methanesulfonyl-2-{[3-(4-{[(1R,4R)-4-(dimethylamino)cyclohexyl]amino}-1-(2,2,2-trifluoro-ethyl)-1H-indol-2-yl)prop-2-yn-1-yl]oxy}phenyl)acetamide]
6 | + (+ = 0 μM ≤ SC150 < 0.05 μM) | CCC(=O)OCCN1CCC(Nc2cccc3c2cc(C#CCNc2ccc(S(N)(=O)=O)cc2OC)n3CC(F)(F)F)CC1 [Compound 608A, 2-{4-[(2-{3-[(2-methoxy-4-sulfamoylphenyl)amino]prop-1-yn-1-yl}-1-(2,2,2-trifluoroethyl)-1H-indol-4-yl)amino]piperidin-1-yl}ethyl propanoate]
7 | + (+ = 0 μM ≤ SC150 < 0.05 μM) | COc1cc(C(N)=O)ccc1NCC#Cc1cc2c(N[C@H]3CCO[C@@H](C)C3)cccc2n1CC(F)(F)F [Compound 1021A, 3-methoxy-4-{[3-(4-{[(2S,4S)-2-methyloxan-4-yl]amino}-1-(2,2,2-trifluoroethyl)-1H-indol-2-yl)prop-2-yn-1-yl]amino}benzamide]
8 | + (+ = 0 μM ≤ SC150 < 0.05 μM) | COc1cc(S(C)(=O)=O)ccc1NCC#Cc1cc2c(N[C@H]3CCC[C@H](N)C3)cccc2n1CC(F)(F)F (relative stereo) [Compound 26A, rel-(1R,3R)-N^1-(2-{3-[(4-methanesulfonyl-2-methoxyphenyl)amino]prop-1-yn-1-yl}-1-(2,2,2-trifluoroethyl)-1H-indol-4-yl)cyclohexane-1,3-diamine]
9 | + (+ = 0 μM ≤ SC150 < 0.05 μM) | CS(=O)(=O)c1ccc(NCC#Cc2cc3c(N[C@H]4CC[C@H](N5CCC6(CC5)COC6)CC4)cccc3n2CC(F)(F)F)c(OCF)c1 [Compound 391A, 2-(3-{[2-(fluoro-methoxy)-4-methane-sulfonylphenyl]amino}prop-1-yn-1-yl)-N-[(1R,4R)-4-(2-oxa-7-azaspiro[3.5]nonan-7-yl}cyclohexyl]-1-(2,2,2-trifluoroethyl)-1H-indol-4-amine]
10 | + (+ = 0 μM ≤ SC150 < 0.05 μM) | COc1cc(S(=O)(=O)Nc2cc(C)on2)ccc1NCC#Cc1cc2c(NC3CCN(C)CC3)cccc2n1CC(F)(F)F [Compound 471A, 3-methoxy-N-(5-methyl-1,2-oxazol-3-yl)-4-[(3-{4-[(1-methylpiperidin-4-yl)amino]-1-(2,2,2-trifluoroethyl)-1H-indol-2-yl}prop-2-yn-1-yl)amino]benzene-1-sulfonamide]
11 | + (+ = 0 μM ≤ SC150 < 0.05 μM) | COc1cc(C(=O)O)ccc1NCC#Cc1cc2c(N[C@H]3CCN(C(C)C)C[C@H]3F)cccc2n1CC(F)(F)F (racemic) [Compound 796A, 4-((3-(4-(((3R,4S)-3-fluoro-1-isopropylpiperidin-4-yl)amino)-1-(2,2,2-trifluoroethyl)-1H-indol-2-yl)prop-2-yn-1-yl)amino)-3-methoxybenzoic acid]
12 | ++ (++ = 0.05 μM ≤ SC150 < 0.1 μM) | COCC(O)CN1CCC(Nc2cccc3c2cc(C#CCNc2ccc(S(C)(=O)=O)cc2OC)n3CC(C)(F)F)CC1 (stereo not shown) [Compound 712A, 1-(4-{[1-(2,2-difluoropropyl)-2-{3-[(4-methanesulfonyl-2-methoxyphenyl)amino]prop-1-yn-1-yl}-1H-indol-4-yl]amino}piperidin-1-yl)-3-methoxypropan-2-ol]
13 | +++ (+++ = 0.1 μM ≤ SC150 < 0.2 μM) | COc1cc(S(C)(=O)=O)ccc1NCC#Cc1cc2c(NC3CCN(CC(COC(=O)C(C)C)OC(=O)C(C)C)CC3)cccc2n1CC(F)(F)F (stereo not shown) [Compound 588A, 1-{4-[(2-{3-[(4-methanesulfonyl-2-methoxyphenyl)amino]prop-1-yn-1-yl}-1-(2,2,2-trifluoroethyl)-1H-indol-4-yl)amino]piperidin-1-yl}-3-[(2-methylpropanoyl)oxy]propan-2-yl 2-methylpropanoate]
14 | + (+ = 0 μM ≤ SC150 < 0.05 μM) | COC[C@H](O)CN1CCC(Nc2cccc3c2cc(C#CCNc2ccc(S(C)(=O)=O)cc2OC)n3CC(F)(F)F)CC1 [Compound 611A, (2R)-1-{4-[(2-{3-[(4-methanesulfonyl-2-methoxyphenyl)amino]prop-1-yn-1-yl}-1-(2,2,2-trifluoroethyl)-1H-indol-4-yl)amino]piperidin-1-yl}-3-methoxypropan-2-ol]
15 | + (+ = 0 μM ≤ SC150 < 0.05 μM) | CCN1CC[C@@H](Nc2cccc3c2cc(C#CCNc2ccc(S(C)(=O)=O)cc2OC)n3CC(F)(F)F)[C@@H](F)C1 [Compound 812A]

Row | SMILES | SC150 (concentration of the compound required to increase the DNA binding activity by 50%)
16 | COc1cc(S(C)(=O)=O)ccc1NCC#Cc1cc2c(NC3CCN(CC(O)COCC(O)CO)CC3)cccc2n1CC(F)(F)F (stereo not shown) [Compound 669A, 3-(2-hydroxy-3-{4-[(2-{3-[(4-methanesulfonyl-2-methoxyphenyl)amino]prop-1-yn-1-yl}-1-(2,2,2-trifluoroethyl)-1H-indol-4-yl)amino]piperidin-1-yl}propoxy)propane-1,2-diol] | + (+ = 0 μM ≤ SC150 < 0.05 μM)
